Assay results published in patent US12150935B1, “3-(3-(1,3-dioxoisoindolin-2-yl) propyl)-5-(4-fluorobenzylidene) thiazolidine-2,4-dione as a potential antitumor and apoptotic inducer” (IMAM MOHAMMAD IBN SAUD ISLAMIC UNIVERSITY, priority 2024, dated 2024).

Key:
[1] = tested on: human oral epithelial normal cell line (OEC); test: Growth inhibition of normal cells, OEC; type: cell-based; conditions: 100 μg/mL, in vitro, read-out: growth inhibition percentage
Method: (§1) The compound of Formula I was tested for its antitumor activity against various cancer cell lines, in vitro, in non-small cell lung cancer (A549), colorectal carcinoma (HCT116), prostate cancer (PC3), pharynx squamous carcinoma (FaDu), triple-negative breast cancer (MDA-MB-468), cervical cancer (HeLa), and human oral epithelial normal cell line (OEC).

[2] = tested on: triple-negative breast cancer (MDA-MB-468); test: Growth inhibition of cancerous cells, MDA-MB-468; type: cell-based; conditions: Homo sapiens, concentration of 100 μg/mL, in vitro, read-out: growth inhibition percentage
Method: as §1

[3] = tested on: pharynx squamous carcinoma (FaDu); test: Growth inhibition of cancerous cells, FaDu; type: cell-based; conditions: Homo sapiens, concentration of 100 μg/mL, in vitro, read-out: growth inhibition percentage
Method: as §1

prostate cancer (PC3) = test: Growth inhibition of cancerous cells, PC3; type: cell-based; conditions: Homo sapiens, concentration of 100 μg/mL, in vitro, read-out: growth inhibition percentage
Method: as §1

[4] = tested on: human non-small cell lung cancer (A549); test: Growth inhibition of cancerous cells, A549; type: cell-based; conditions: concentration of 100 μg/mL, in vitro, read-out: growth inhibition percentage
Method: as §1

cervical cancer (HeLa) = test: Growth inhibition of cancerous cells, HeLa; type: cell-based; conditions: Homo sapiens, concentration of 100 μg/mL, in vitro, read-out: growth inhibition percentage
Method: as §1

[5] = tested on: colorectal carcinoma (HCT116); test: Growth inhibition of cancerous cells, HCT116; type: cell-based; conditions: Homo sapiens, HCT-116, concentration of 100 μg/mL, in vitro, read-out: growth inhibition percentage
Method: as §1

melting point [°C] | Compound | inhibition at 100 µg/mL [1] [%] | inhibition at 100 µg/mL [2] [%] | inhibition at 100 µg/mL [3] [%] | inhibition at 100 µg/mL (prostate cancer (PC3)) [%] | inhibition at 100 µg/mL [4] [%] | inhibition at 100 µg/mL (cervical cancer (HeLa)) [%] | inhibition at 100 µg/mL [5] [%]
233 to 234 | O=C1S/C(=C/c2ccc(F)cc2)C(=O)N1CCCN1C(=O)c2ccccc2C1=O [Formula I, 3-(3-(1,3-Dioxoisoindolin-2-yl)propyl)-5-(4-fluorobenzylidene) thiazolidine-2,4-dione] | 61.2 | 87.8 | 86.8 | 84.3 | 79.1 | 73.1 | 79.3
– | COc1cccc2c1C(=O)c1c(O)c3c(c(O)c1C2=O)C[C@@](O)(C(=O)CO)C[C@@H]3O[C@H]1C[C@H](N)[C@H](O)[C@H](C)O1 [doxorubicin, reference compound] | 57.9 | – | – | – | – | – | –
